{
  "source": "ChEMBL document CHEMBL2073816",
  "about": "(J Biol Chem, 2001)",
  "molecules": {"B1": {"name": "Solute carrier family 22 member 2 (Homo sapiens) (protein)", "chain": "MPTTVDDVLEHGGEFHFFQKQMFFLLALLSATFAPIYVGIVFLGFTPDHRCRSPGVAELSLRCGWSPAEELNYTVPGPGPAGEASPRQCRRYEVDWNQSTFDCVDPLASLDTNRSRLPLGPCRDGWVYETPGSSIVTEFNLVCANSWMLDLFQSSVNVGFFIGSMSIGYIADRFGRKLCLLTTVLINAAAGVLMAISPTYTWMLIFRLIQGLVSKAGWLIGYILITEFVGRRYRRTVGIFYQVAYTVGLLVLAGVAYALPHWRWLQFTVSLPNFFFLLYYWCIPESPRWLISQNKNAEAMRIIKHIAKKNGKSLPASLQRLRLEEETGKKLNPSFLDLVRTPQIRKHTMILMYNWFTSSVLYQGLIMHMGLAGDNIYLDFFYSALVEFPAAFMIILTIDRIGRRYPWAASNMVAGAACLASVFIPGDLQWLKIIISCLGRMGITMAYEIVCLVNAELYPTFIRNLGVHICSSMCDIGGIITPFLVYRLTNIWLELPLMVFGVLGLVAGGLVLLLPETKGKALPETIEEAENMQRPRKNKEKMIYLQVQKLDIPLN"}, "B2": {"name": "Solute carrier family 22 member 2 (Rattus norvegicus) (protein)", "chain": "MSTVDDILEHIGEFHLFQKQTFFLLALLSGAFTPIYVGIVFLGFTPDHHCWSPGAAKLSQRCGWSQAEELNYTVPGLGPSDEASFLSQCMRYEVDWNQSTLDCVDPLSSLAADRNQLPLGPCEHGWVYNTPGSSIVTEFNLVCAHSWMLDLFQSVVNVGFFIGAMMIGYLADRFGRKFCLLVTILINAISGALMAISPNYAWMLVFRFLQGLVSKAGWLIGYILITEFVGLGYRRMVGICYQIAFTVGLLILAGVAYVIPNWRWLQFAVTLPNFCFLLYFWCIPESPRWLISQNKIVKAMKIIKHIAKKNGKSVPVSLQNLTPDEDAGKKLNPSFLDLVRTPQIRKHTLILMYNWFTSSVLYQGLIMHMGLAGDNIYLDFFYSALVEFPAAFIIILTIDRVGRRYPWAVSNMVAGAACLASVFIPDDLQWLKITIACLGRMGITMAYEMVCLVNAELYPTYIRNLGVLVCSSMCDIGGIITPFLVYRLTDIWMEFPLVVFAVVGLVAGALVLLLPETKGKALPETIEDAENMQRPRKKKEKRIYLQVKQADRPLS"}, "B3": {"name": "Solute carrier family 22 member 1 (Rattus norvegicus) (protein)", "chain": "MPTVDDVLEQVGEFGWFQKQAFLLLCLISASLAPIYVGIVFLGFTPGHYCQNPGVAELSQRCGWSQAEELNYTVPGLGPSDEASFLSQCMRYEVDWNQSTLDCVDPLSSLVANRSQLPLGPCEHGWVYDTPGSSIVTEFNLVCGDAWKVDLFQSCVNLGFFLGSLVVGYIADRFGRKLCLLVTTLVTSVSGVLTAVAPDYTSMLLFRLLQGMVSKGSWVSGYTLITEFVGSGYRRTTAILYQMAFTVGLVGLAGVAYAIPDWRWLQLAVSLPTFLFLLYYWFVPESPRWLLSQKRTTRAVRIMEQIAQKNGKVPPADLKMLCLEEDASEKRSPSFADLFRTPNLRKHTVILMYLWFSCAVLYQGLIMHVGATGANLYLDFFYSSLVEFPAAFIILVTIDRIGRIYPIAASNLVTGAACLLMIFIPHELHWLNVTLACLGRMGATIVLQMVCLVNAELYPTFIRNLGMMVCSALCDLGGIFTPFMVFRLMEVWQALPLILFGVLGLTAGAMTLLLPETKGVALPETIEEAENLGRRKSKAKENTIYLQVQTGKSSST"}},
  "key": {"[1]": {"molecular_target": "T1, Solute carrier family 22 member 2 (Homo sapiens, UniProt O15244)", "T1 sequence (O15244 whole entry)": "B1 chain", "test": "TP_TRANSPORTER: inhibition of Choline uptake (Choline: 10 uM, NMN: 5000 uM) in Xenopus laevis oocytes", "assay_type": "functional, cell-based", "settings": "oocyte"}, "[2]": {"molecular_target": "T2, Solute carrier family 22 member 1 (Rattus norvegicus, UniProt Q63089)", "T2 sequence (Q63089 whole entry)": "B3 chain", "test": "(§1) TP_TRANSPORTER: inhibition of Choline uptake (Choline: 10 uM, Quinine: 200 uM) in Xenopus laevis oocytes", "assay_type": "functional, cell-based", "settings": "oocyte"}, "[3]": {"molecular_target": "T3, Solute carrier family 22 member 2 (Rattus norvegicus, UniProt Q9R0W2)", "T3 sequence (Q9R0W2 whole entry)": "B2 chain", "test": "as §1", "assay_type": "functional, cell-based", "settings": "oocyte"}, "[4]": {"molecular_target": "T1, Solute carrier family 22 member 2", "test": "TP_TRANSPORTER: inhibition of Choline uptake (Choline: 10 uM, TPeA: 200 uM) in Xenopus laevis oocytes", "assay_type": "functional, cell-based", "settings": "oocyte"}, "[5]": {"substrate": "C[N+](C)(C)CCO", "test": "cells, lysate or membranes named"}},
  "data": [
    {"molecule": "CNC(=O)c1cccnc1", "note": "[NICOTINYL METHYLAMIDE]", "values": [
      {"measurement": "Activity", "setting": "[1]", "result": "inhibitor [+]"}
    ]},
    {"molecule": "C=C[C@H]1C[N@@]2CC[C@H]1C[C@H]2[C@H](O)c1ccnc2ccc(OC)cc12", "note": "[QUININE]", "values": [
      {"measurement": "Activity", "setting": "[2]", "result": "inhibitor [+]"},
      {"measurement": "Activity", "setting": "[3]", "result": "inhibitor [+]"}
    ]},
    {"molecule": "CCCCC[N+](CCCCC)(CCCCC)CCCCC", "note": "[TETRAPENTYLAMMONIUM]", "values": [
      {"measurement": "Activity", "setting": "[4]", "result": "inhibitor [+]"}
    ]},
    {"molecule": "B1", "values": [
      {"measurement": "Km", "setting": "[5]", "result": 102, "unit": "µM"}
    ]},
    {"molecule": "B2", "values": [
      {"measurement": "Km", "setting": "[5]", "result": 441, "unit": "µM"}
    ]},
    {"molecule": "B3", "values": [
      {"measurement": "Km", "setting": "[5]", "result": 346, "unit": "µM"}
    ]}
  ]
}
